The results in this text go back to article PMC7843452, “Novel Hybrids of Podophyllotoxin and Coumarin Inhibit the Growth and Migration of Human Oral Squamous Carcinoma Cells” (Frontiers in Chemistry, 2021).

The test system of test [1] is human oral squamous carcinoma HSC-2 cells. Nature of the test: CCK-8 antiproliferative assay, HSC-2. The class given is cell-based. Particulars: read-out: IC50 (μM) HSC-2. The method, then:
(§1) The in vitro antiproliferative activities of target compounds were investigated against human oral squamous carcinoma HSC-2, SCC-9, and A253 cells and human renal tubular epithelial HK-2 cells by Cell Counting Kit-8 (CCK-8) assay. The HSC-2, SCC-9, and A253 cell lines were purchased from Cobioer Biosciences (Nanjing, China), and HK-2 cell line was from KeyGen Biotech (Nanjing, China). The cells were placed into 96-well plates. After 24 h, cells were treated with 0.1% DMSO or different doses of test compounds for 72 h at 37°C in a CO2 incubator. Subsequently, 100 μl of CCK-8 test solution was added and incubated for 3 h at 37°C. The absorbance value of each well was measured at 450 nm.

The test system of test [2] is human oral squamous carcinoma SCC-9 cells. Put plainly: CCK-8 antiproliferative assay, SCC-9. The class given is cell-based. Particulars: read-out: IC50 (μM) SCC-9. The procedure: as §1
Test [3] concerns human oral squamous carcinoma A253 cells. Nature of the test: CCK-8 antiproliferative assay, A253. The class given is cell-based. Particulars: read-out: IC50 (μM) A253. The method, then:
as §1

Test [4] relates to human renal tubular epithelial HK-2 cells. Put plainly: CCK-8 assay on normal cells, HK-2. The note with it: read-out: IC50 (μM) HK-2. The class given is cell-based. The procedure:
as §1

In test [5] the test system is HSC-2 cells. Put plainly: Cell cycle analysis by flow cytometry (PI). The class given is cell-based, human. Particulars: 48 h. The method, then: HSC-2 cells were incubated in six-well plates and then treated with 0.1% DMSO or different concentrations of test compounds for 48 h. Subsequently, cells were fixed with 70% ethanol at 4°C overnight. After that, cells were washed with phosphate-buffered saline (PBS) and stained with 100 μl of RNase A at 37°C for 30 min and then 400 μl of propidium iodide (PI) at 4°C for 30 min. The cell cycle was measured by flow cytometry.

Test [6] deals with HSC-2 cells. Nature of the test: Cell apoptosis analysis by flow cytometry (Annexin V/7-AAD). The class given is cell-based, human. The note with it: HSC-2, 0.1, 0.25 and 0.5 μM, 48 h, dose-dependent. The procedure: HSC-2 cells were seeded into six-well plates, grown overnight at 37°C in a 5% CO2 incubator, and then treated with 0.1% DMSO or different concentrations of test compounds for 48 h. Cells were washed twice with ice-cold PBS and then suspended with 500 μl of binding buffer. Subsequently, 5 μl of Annexin V-APC and 5 μl of 7-AAD were added, and the cells were incubated at room temperature for 15 min in the dark. The samples were analyzed by flow cytometry.

Test [7] has as its system HSC-2 cells. Put plainly: Mitochondrial membrane potential assay (JC-1). Particulars: HSC-2, 0.1, 0.25 and 0.5 μM, 48 h, JC-1, dose-dependent. The class given is cell-based, human. The procedure: HSC-2 cells were seeded on six-well plates and grown overnight at 37°C in a 5% CO2 incubator. Then, cells were incubated with 0.1% DMSO or different concentrations of compounds at 37°C for 48 h. Subsequently, cells were trypsinized, washed with PBS, and resuspended in incubation buffer containing JC-1 at 37°C for 20 min in a 5% CO2 incubator. The dyeing cells were rinsed, suspended in incubation PBS, and then analyzed d by flow cytometry.

For test [8], the system named is HSC-2 cells. Put plainly: AO/EB double staining assay. The class given is cell-based, human. The note with it: HSC-2, 0.1, 0.25 and 0.5 μM, 48 h. The procedure:
HSC-2 cells were seeded on six-well plates and grown overnight at 37°C in a 5% CO2 incubator. Then, cells were incubated with 0.1% DMSO or different concentrations of compounds at 37°C for 48 h. Subsequently, cells were trypsinized, collected, washed with PBS, and stained with 100 μl of AO/EB dye at room temperature for 15 min in the dark. The dyeing cells were rinsed, suspended in incubation PBS, and then observed under a fluorescence microscope.

For test [9], the system named is microtubule network in HSC-2 cells. Nature of the test: Immunofluorescence assay of microtubule network. The class given is cell-based, human. Particulars: HSC-2, 0.1, 0.25 and 0.5 μM, 48 h, dose-dependent. The procedure: HSC-2 cells were seeded on 24-well plates, grown overnight at 37°C in a 5% CO2 incubator, and then incubated with 0.1% DMSO or different concentrations of compounds at 37°C for 48 h. Cells were washed with PBS, fixed with 4% paraformaldehyde, and then further permeabilized with 0.5% Triton X-100 for 10 min. Subsequently, cells were blocked for 20 min by 50–100 μl of goat serum albumin at room temperature and then treated with α-tubulin primary antibody at 4°C for 2 h. Then, cells were treated with the Alexa Fluor 488-labeled goat anti-rabbit fluorescence secondary antibody at 37°C for 1 h in the dark, and the cell nuclei were labeled by DAPI at room temperature for 5 min. Finally, cells were visualized under a confocal microscope.

Test [10] deals with HSC-2 cells. Put plainly: Wound healing migration assay. The class given is cell-based, human. Particulars: HSC-2, 0.1, 0.25 and 0.5 μM, 48 h, dose-dependent. The method, then:
HSC-2 cells were seeded on six-well plates and grown to 80% at 37°C in a 5% CO2 incubator. Then, cells were scratched using the tip of the pipette, then washed with PBS to remove the non-adherent cells, and incubated with 0.1% DMSO or different concentrations of compounds at 37°C for 48 h. The images of cell migration were photographed with an inverted fluorescent microscope at 0 and 48 h.

The subject of the next test is CDK2. Put plainly: Western blot, CDK2. The class given is cell-based, human. Particulars: HSC-2, 0.1, 0.25 and 0.5 μM, 48 h. The procedure:
(§2) After being cultured, HSC-2 cells were treated with 0.1% DMSO or different concentrations of compounds at 37°C for 48 h. Then, cells were collected, washed twice with PBS, and lysed with cold lysis buffer, followed by centrifugation. Then, the total proteins were collected, and protein concentration was quantified using Bradford assay. Equal amounts of proteins were electrophoresed by 10% sodium dodecyl sulfate–polyacrylamide gel electrophoresis (SDS-PAGE) and transferred onto nitrocellulose (NC) membrane. Membranes were blocked with 5% non-fat milk for 2 h, then washed, and incubated with primary antibodies overnight at 4°C. After being washed, the membranes were treated with secondary antibodies at room temperature for 2 h and then visualized using an ECL Western blotting kit.

A further test concerns cyclin A2. Put plainly: Western blot, cyclin A2. The class given is cell-based, human. The note with it: HSC-2, 0.1, 0.25 and 0.5 μM, 48 h. The procedure:
as §2

Another test concerns cleaved caspase3. Nature of the test: Western blot, cleaved caspase3. The class given is cell-based, human. Particulars: HSC-2, 0.1, 0.25 and 0.5 μM, 48 h, concentration-dependent. The procedure:
as §2

The subject of the next test is cleaved PARP. Nature of the test: Western blot, cleaved PARP. The class given is cell-based, human. The note with it: HSC-2, 0.1, 0.25 and 0.5 μM, 48 h, concentration-dependent. The procedure: as §2
For another test, the system named is E-cadherin. Put plainly: Western blot, E-cadherin. The class given is cell-based, human. Particulars: HSC-2, 0.1, 0.25 and 0.5 μM, 48 h. The procedure: as §2
Another test concerns MMP-2. Nature of the test: Western blot, MMP-2. The class given is cell-based, human. The note with it: HSC-2, 0.1, 0.25 and 0.5 μM, 48 h. The procedure: as §2
The test system of a further test is Beclin1. Nature of the test: Western blot, Beclin1. The class given is cell-based, human. The note with it: HSC-2, 0.1, 0.25 and 0.5 μM, 48 h. The method, then:
as §2

The next test has as its system LC3. Nature of the test: Western blot, LC3. The class given is cell-based, human. Particulars: HSC-2, 0.1, 0.25 and 0.5 μM, 48 h. The method, then: as §2
The next test concerns p-AMPK. Nature of the test: Western blot, p-AMPK. The class given is cell-based, human. Particulars: HSC-2, 0.1, 0.25 and 0.5 μM, 48 h, dose-dependent. The method, then:
as §2

In a further test the test system is p-AKT. Nature of the test: Western blot, p-AKT. The class given is cell-based, human. The note with it: HSC-2, 0.1, 0.25 and 0.5 μM, 48 h. The procedure: as §2
A further test concerns p-mTOR. Nature of the test: Western blot, p-mTOR. The class given is cell-based, human. The note with it: HSC-2, 0.1, 0.25 and 0.5 μM, 48 h. The method, then:
as §2

The mark [11] stands for this setting: normal cells, CCK-8, 72 h, mean ± SD.

Read-outs that look alike come from different tables or passages of the source.

As for `O=c1[nH]cc(F)c(=O)[nH]1` [5-FU], the IC50 in test [1] (CCK-8, 72 h, mean ± SD) turned out to be 7.12 ± 0.87 µM; in test [2] (CCK-8, 72 h, mean ± SD) it was 5.35 ± 0.784 µM; in test [3] (CCK-8, 72 h, mean ± SD), 5.52 ± 0.199 µM; in test [4] (setting [11]) it was 8.77 ± 1.04 µM.
In the case of `COc1cc([C@@H]2c3cc4c(cc3[C@H](OC(=O)COc3ccc5c(C)cc(=O)oc5c3)[C@H]3COC(=O)[C@H]23)OCO4)cc(OC)c1OC` [12a], the IC50 in test [1] (Homo sapiens, HSC-2, 72 h) is 0.281 ± 0.024 µM; in test [2] (Homo sapiens, SCC-9, 72 h), 0.279 ± 0.041 µM; in [3] (Homo sapiens, A253, 72 h), 0.349 ± 0.063 µM; in test [4] (Homo sapiens, HK-2, 72 h) it was 0.814 ± 0.173 µM.
As to `COc1cc([C@@H]2c3cc4c(cc3[C@H](OC(=O)COc3ccc5ccc(=O)oc5c3)[C@H]3COC(=O)[C@H]23)OCO4)cc(OC)c1OC` [12b], the IC50 in test [1] (Homo sapiens, HSC-2, 72 h) amounted to 0.226 ± 0.021 µM; in test [2] (Homo sapiens, SCC-9, 72 h) it was 0.231 ± 0.05 µM; in [3] (Homo sapiens, A253, 72 h), 0.25 ± 0.019 µM; in test [4] (Homo sapiens, HK-2, 72 h) it was 0.626 ± 0.043 µM. Also, the “Effect on cell cycle” value in the test on HSC-2 cells [5] (HSC-2, 0.1 μM) was “significant S accumulation”; with HSC-2 cells [5] (HSC-2, 0.25 and 0.5 μM) it was “cell cycle arrest at both S and G2 phases”. In the test on HSC-2 cells [6], the Induction of apoptosis entry is “obviously induced apoptosis”. In addition, the “Mitochondrial membrane potential (MMP)” value with HSC-2 cells [7] is “significantly decreased”. Besides, the “Morphological change, AO/EB staining” value in the test on HSC-2 cells [8] is “chromatin condensation and shrinkage”. Besides, the “Effect on microtubule network organization” value in test [9] is given as “disruption of microtubule network organizations”. For the same molecule, the Cell migration entry with HSC-2 cells [10] is “inhibited HSC-2 cell migration”. In the test with CDK2, the “Relative level of CDK2” value is “suppressed in a concentration-dependent manner”. The “Relative level of cyclin A2” value in the test on cyclin A2 is on record as “suppressed in a concentration-dependent manner”. Moreover, the “Relative level of cleaved caspase3” value in the test on cleaved caspase3 is on record as “upregulated”. Further, the “Relative level of cleaved PARP” value in the test on cleaved PARP is given as “upregulated”. In addition, in the test with E-cadherin, the “Expression of E-cadherin” value is “obviously enhanced”. Also, in the test with MMP-2, the “Expression of MMP-2” value is reported as “reduced”. In addition, the “Aggregation of Beclin1” value with Beclin1 is reported as “increasing”. In addition, the “Aggregation of LC3” value with LC3 is recorded as “increasing”. Further, the “Level of cleavage of LC3 (LC3-II)” value with LC3 is on record as “upregulated”. For the same molecule, the p-AMPK expression entry in the test with p-AMPK is “upregulated”. Also, the “Phosphorylation of AKT” value in the test on p-AKT was “downregulated”. The mTOR phosphorylation result in the test on p-mTOR is “inhibition”.
`N.N.[Cl][Pt][Cl]` [Cisplatin, cisplatin]: the IC50 stood at 2.03 ± 0.308 µM in test [1] (CCK-8, 72 h, mean ± SD); 2.35 ± 0.384 µM in test [2] (CCK-8, 72 h, mean ± SD); 1.62 ± 0.157 µM in test [3] (CCK-8, 72 h, mean ± SD); 5.36 ± 0.33 µM in [4] (setting [11]).
With `COc1cc([C@@H]2c3cc4c(cc3[C@@H](O[C@@H]3O[C@@H]5CO[C@@H](C)O[C@H]5[C@H](O)[C@H]3O)[C@H]3COC(=O)[C@H]23)OCO4)cc(OC)c1O` [Etoposide, etoposide], the IC50 came out at 1.25 ± 0.467 µM in test [1] (Homo sapiens, HSC-2, CCK-8, 72 h, mean ± SD); 1.15 ± 0.308 µM in [2] (Homo sapiens, SCC-9, CCK-8, 72 h, mean ± SD); 0.95 ± 0.387 µM in [3] (Homo sapiens, A253, CCK-8, 72 h, mean ± SD); 3.04 ± 1.37 µM in test [4] (Homo sapiens, HK-2, normal cells, CCK-8, 72 h, mean ± SD).
